Source: publication PMC6766655, “AhR–ROR-γt complex is a therapeutic target for MAP4K3/GLK^highIL-17A^high subpopulation of systemic lupus erythematosus” (The FASEB Journal, 2019)

Columns and labels:
GLK kinase domain = biological target: T1, GLK kinase domain (Homo sapiens, UniProt Q8IVH8); assay: In vitro GLK kinase assay with kinase-dead PKC-θ (K409W) as substrate; assay type: biochemical; conditions: GST-tagged kinase-dead PKC-θ (K409W) substrate; Fig. 3B
T1 construct: Recombinant proteins of GLK kinase domain plus recombinant proteins of GST-tagged kinase-dead PKC-θ (K409W) were subjected to in vitro kinase assays; made in house; host or cells: Escherichia coli (BL21)
T1 sequence (Q8IVH8 16-273 limits assumed): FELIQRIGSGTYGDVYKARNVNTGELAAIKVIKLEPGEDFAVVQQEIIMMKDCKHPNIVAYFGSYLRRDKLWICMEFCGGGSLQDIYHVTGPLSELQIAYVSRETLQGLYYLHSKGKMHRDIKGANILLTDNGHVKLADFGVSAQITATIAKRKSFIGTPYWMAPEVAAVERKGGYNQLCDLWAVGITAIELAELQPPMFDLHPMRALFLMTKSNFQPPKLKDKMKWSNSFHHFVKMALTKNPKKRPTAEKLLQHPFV
Protocol: (§1) GLK kinase activity was determined by measuring the rate of ADP production in the in vitro kinase reaction using ADP-Glo Kinase Assay Kit (Promega). For the kinase reaction, recombinant proteins of the GLK kinase domain (1 μg) were incubated with recombinant proteins of kinase-dead PKC-θ (K409W; 0.15 μg) plus ATP (0.1 mM) or myelin basic protein (MilliporeSigma) plus ATP (0.1 mM) in kinase buffer [40 mM Tris-HCl (pH 7.5), 20 mM MgCl2, 0.1 mg/ml bovine serum albumin, 10 mM DTT, and 0.1 mM Na3VO4] for 30 min at room temperature.
Cell-based high‐throughput screening was conducted against a representative library of 100,000 molecules at ∼10 μM. The Chinese hamster ovary CHO-K1 (ATCC, CCL-61) cells expressing GLK and NF-κB luciferase (Luc) reporter were used. The reaction volume was 5 μl (500 cells) per well in 1536‐well plates. There was no positive control. This high‐throughput screening campaign was successful, with a determined Z' factor of 0.57 ∼ 0.60. […] At the end, 1392 compounds were identified for high inhibition (>80%) of the GLK-induced NF-κB luciferase activity of CHO‐GLK‐Luc cells. […]
Figure 3 Verteporfin (C1) blocks the AhR–ROR-γt complex in human autoimmune T cells. […] D) Quantification of the PLA signals shown in panel C. *P < 0.05, ***P < 0.001 (2-tailed Student’s t test).

CIA mice = assay: Collagen-induced arthritis (CIA) in wild-type C57BL/6J mice; assay type: in vivo
Protocol: At 12 wk of age (d 0), male C57BL/6J mice were intradermally injected in the superficial layer of tail dermis with a total of 100 μl of an emulsion containing the chicken type II chicken collagen or Freund’s complete adjuvant emulsification (MD Biosciences, Oakdale, MN, USA) ([23]). The same injection was repeated intraperitoneally on d 21. Then, clinical signs of disease were assigned using the following clinical scores: 1, swollen digits; 2, erythema; 3, swollen paw or ankle; 4, loss of function. Mice were treated with verteporfin at a concentration of 0.4 μg/g body weight (0.556 nmol/g) by intravenous injection every 3 d starting from d 21 up to d 36.
Figure 4 Verteporfin (C1) suppresses IL-17 production and autoimmune responses in mice. A–C) Effect of C1 administration (0.4 μg/g body weight every 3 d for a period of 30 d) on serum IL-17A and autoantibodies in 20-wk-old Lck-GLK Tg mice. B) ELISA of serum IL-17A, IL-6, TNF-α, IFN-γ, and IL-17F in Lck-GLK Tg mice treated with C1 or PBS for 16 d. C) ELISA of serum autoantibodies in Lck-GLK Tg mice treated with C1 or PBS for 30 d. Means ± SEM are shown; n = 4/group. D) EAE induction in wild-type C57BL/6J mice treated with PBS or C1 (0.4 μg/g body weight every 3 d). Clinical scores are presented on a scale of 1–5. PBS group, n = 10; C1 group, n = 7. E) ELISA of IL-17A in the sera from MOG-immunized mice at day 16. F) Induction of CIA in wild-type C57BL/6J mice treated with C1 (0.4 μg/g body weight every 3 d) or PBS. Clinical scores are presented on a scale of 1–16; n = 4/group. G) ELISA of serum IL-17A in collagen-immunized mice at d 28. Data shown are representatives of 3 independent experiments. α-dsDNA, anti-dsDNA antibody; ANA, anti-nuclear antibody; N.S., not significant; RF, rheumatoid factor. Means ± SEM are shown. *P < 0.05, **P < 0.01, ***P < 0.001 (2-tailed Student’s t test).

HGK (MAP4K4) = biological target: T2, HGK (MAP4K4) (Homo sapiens, UniProt O95819); assay: In vitro kinase assay, myelin basic protein as substrate (ADP-Glo); assay type: biochemical; conditions: recombinant kinase domain
T2 construct: Recombinant proteins of kinase domains of various MAP4Ks were used; purchased Promega
T2 sequence (O95819 25-289 limits assumed): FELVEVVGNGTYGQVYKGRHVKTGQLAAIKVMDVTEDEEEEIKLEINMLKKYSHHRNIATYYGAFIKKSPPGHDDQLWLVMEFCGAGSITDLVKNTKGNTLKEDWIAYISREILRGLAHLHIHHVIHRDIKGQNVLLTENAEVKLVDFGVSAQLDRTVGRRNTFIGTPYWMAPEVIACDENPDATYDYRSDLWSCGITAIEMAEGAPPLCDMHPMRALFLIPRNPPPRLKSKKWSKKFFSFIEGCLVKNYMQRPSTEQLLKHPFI

[1] = system: in vitro differentiated Th17 cells; assay: IL-17A production of in vitro differentiated Th17 cells stimulated with PMA plus ionomycin (flow cytometry); assay type: cell-based, murine; conditions: 1 or 5 μM for 30 min
Protocol: Supplementary Figure 5. Verteporfin inhibits both Th17 differentiation and IL-17A production from in vitro differentiated Th17 cells. (A) Flow cytometry of IL-17A-producing CD4^+ T cells. Splenic T cells were co-treated with verteporfin (C1) (1 or 5 μM) during Th17 differentiation in vitro (for 3 days). (B) Flow cytometry of IL-17A-producing CD4^+ T cells. Murine in vitro differentiated Th17 cells were stimulated with PMA plus ionomycin and co-treated with verteporfin (C1) (1 or 5 μM) for 30 min. Data shown are representatives of two independent experiments.

GLK (MAP4K3) = biological target: T3, GLK (MAP4K3) (Homo sapiens, UniProt Q8IVH8); assay: In vitro kinase assay, myelin basic protein as substrate (ADP-Glo); assay type: biochemical; conditions: recombinant kinase domain
T3 construct: Recombinant proteins of kinase domains of various MAP4Ks were used; purchased Promega
T3 sequence (Q8IVH8 16-273 limits assumed): T1 sequence (Q8IVH8 16-273 limits assumed)
Protocol: as §1

## verteporfin
GLK kinase domain
  GLK kinase activity in vitro: efficiently inhibited
CIA mice; 0.4 μg/g body weight i.v. every 3 d
  serum levels of IL-6, TNF-α, IFN-γ, and IL-4, CIA: not significantly decreased
CIA mice; 0.4 μg/g body weight i.v. every 3 d, d 28
  serum IL-17A levels, CIA: significantly suppressed
CIA mice; 0.4 μg/g body weight i.v. every 3 d from d 21
  disease severity (clinical score), CIA: significantly suppressed
HGK (MAP4K4)
  IC50: 4.92 nM
[1]
  IL-17A production from in vitro differentiated Th17 cells: inhibited
[1]; listed as Verteporfin
  IL-17A production from in vitro differentiated Th17 cells: inhibits
GLK (MAP4K3)
  IC50: 1.15 nM
